4 compounds from publication PMC9138991, “Effect of Trimethine Cyanine Dye- and Folate-Conjugation on the In Vitro Biological Activity of Proapoptotic Peptides” (Biomolecules, 2022) can be followed below.

Holding throughout (format): cell-based, human
The test system of series [1] is SK-OV-3 cells. Put plainly: Cell viability assay (CellTiter-Blue), SK-OV-3 cells. To be noted: 2 × 10^4 cells per well, medium + 10% FBS, 1% DMSO, 24 h at 37 °C, then CellTiter-Blue 4 h, three biological replicates fitted in Origin, standard error in brackets. As to the method: (§1) KB and MCF7 cells were kindly gifted by Prof. Arwyn T. Jones (Cardiff University), HEK293 cells were purchased from Public Health England, and SK-OV-3 cells were purchased from National Collection of Authenticated Cell Cultures (https://cell-bank.org.cn/). Cells were routinely tested for mycoplasma infection. KB and SK-OV-3 cells were maintained in T75 flasks at 37 °C in a 5% CO2 atmosphere in folic acid-depleted Roswell Park Memorial Institute (RPMI)-1640 medium supplemented with 10% (v/v) fetal bovine serum (FBS). MCF7 and HEK293 cells were maintained in T75 flasks at 37 °C in a 5% CO2 atmosphere in Dulbecco’s Modified Eagle’s medium (DMEM) supplemented with 10% (v/v) FBS. Cells were maintained at a sub-confluent monolayer and split at 80–85% confluency. For splitting, cells were washed with PBS, trypsinized in 1 mL of trypsin, and 200 µL of the 1000 µL trypsin cell suspension was re-suspended in 12 mL fresh DMEM containing 10% (v/v) FBS in a new T75 flask. KB and SK-OV-3 cells were used for biological experiments after being maintained for at least 10 days in folic acid-depleted RPMI-1640 medium.
(§2) SK-OV-3, MCF7, and HEK293 cells were seeded at a density of 2 × 10^4 cells per well in a Nunc™ MicroWell™ 96-well plate and grown at 37 °C in a 5% CO2 atmosphere in DMEM supplemented with 10% (v/v) FBS for 24 h. KB cells were seeded at a density of 7 × 10^3 cells per well in a 96-well plate and grown at 37 °C in a 5% CO2 atmosphere in folic acid-depleted RPMI-1640 medium supplemented with 10% (v/v) FBS for 24 h. Stock solutions of compounds 2–6 and 11–13 were obtained by dissolving the compounds in sterile deionized water. Compounds 1, and 7–10 were dissolved in pure DMSO. The stock solutions were diluted into the proper medium (according to the cell line tested) supplemented with 10% FBS to the appropriate concentration, and cells in each well were incubated with 100 µL of the solution. The solutions in each well were then adjusted to a concentration of 1% (v/v) DMSO. After 24 h at 37 °C, 20 µL of CellTiter-Blue™ was added to each well. The plate was incubated for another 4 h at 37 °C before analysis on a Perkin Elmer Victor X plate reader (excitation 531 nm; emission 595 nm). Each data point was calculated from a minimum of nine values resulting from three biological replicates (i.e., cells split from three different passages); each biological replicate is calculated from three technical replicates (i.e., cells split from the same passage). Value from media-only with CellTiter-Blue™ was set at 0% viability. This value was then subtracted from the values from cell-only (i.e., non-treated) wells with CellTiter-Blue™ in each biological replicate and set as 100% viability. For treatments of Cy3-containing compounds, blanks were generated with cell-free wells containing the compounds incubated for 24 h before addition of CellTiter-Blue™. The fluorescent reading for these wells was deducted from the treatment readings. Dose-response fitting curves were generated using Origin, version 2019b, OriginLab Corporation, Northampton, MA, USA (Figures S21–S24, Supplementary Materials).
(§3) Comparison of cytotoxicity fitting curves was achieved by applying the extra sum-of-squares F test, performed using GraphPad Prism version 9 for Windows, GraphPad Software, La Jolla, California, USA (https://www.graphpad.com/). […] Statistical analysis on the flow cytometry data was achieved by applying the unpaired two-tailed t-test test, performed using GraphPad Prism version 9 for Windows, GraphPad Software, La Jolla California USA, USA (https://www.graphpad.com/).
(§4) Cytotoxicity of 1–13 was evaluated using the CellTiter-Blue assay on KB, MCF7, SK-OV-3, and HEK293 cells. KB cells are derived from human cervical cancer, while SK-OV-3 cells are derived from human ovarian cancer. […] This feature is of particular relevance in anticancer applications, as it can be exploited for selective targeting and delivery. […]
On the technique in general: Alamar Blue is a resazurin reagent that responds to reducing activity.

Series [2] deals with KB cells. Put plainly: Cell viability assay (CellTiter-Blue), KB cells. To be noted: 7 × 10^3 cells per well, folic acid-depleted RPMI-1640 + 10% FBS, 1% DMSO, 24 h at 37 °C, then CellTiter-Blue 4 h, three biological replicates fitted in Origin, standard error in brackets. On the procedure:
as §1, §2, §3, §4

Series [3] relates to HEK293 cells. Put plainly: Cell viability assay (CellTiter-Blue), HEK293 cells. To be noted: 2 × 10^4 cells per well, DMEM + 10% FBS, 1% DMSO, 24 h at 37 °C, then CellTiter-Blue 4 h, three biological replicates fitted in Origin, standard error in brackets. On the procedure: as §1, §2, §3, §4
Series [4] has as its system KB, MCF7, SK-OV-3, and HEK293 cells. Put plainly: Cell viability assay (CellTiter-Blue), statements over all tested cell lines. To be noted: KB, SK-OV-3, MCF7 and HEK293 cells, CellTiter-Blue; for EC50: 24 h; for Potency (cytotoxicity) in the tested cell lines, in words: extra sum-of-squares F test. As to the method:
as §2, §3
Cytotoxicity of 1–13 was evaluated using the CellTiter-Blue assay on KB, MCF7, SK-OV-3, and HEK293 cells. KB cells are derived from human cervical cancer, while SK-OV-3 cells are derived from human ovarian cancer. […] This feature is of particular relevance in anticancer applications, as it can be exploited for selective targeting and delivery. MCF7 is a cell line derived from human breast cancer with low levels of folate receptor α [27]. Therefore, it can serve as the negative control for folate receptor α mediated tumor-targeted drug delivery systems. HEK293 is a non-cancer cell line and was chosen to evaluate the specificity of the tested compounds toward cancer cells.

Series [5] deals with MCF7 cells. Put plainly: Cell viability assay (CellTiter-Blue), MCF7 cells. To be noted: MCF7 cells, 2 × 10^4 cells per well, DMEM + 10% FBS, 1% DMSO, 24 h at 37 °C, then CellTiter-Blue 4 h; three biological replicates fitted in Origin, standard error in brackets. On the procedure: as §1, §2, §3, §4
Series [6] relates to mitochondria of SK-OV-3 cells. Kind of series: Confocal microscopy, colocalisation with MitoTracker Green FM, SK-OV-3 cells. To be noted: 10 µM conjugate, 10 min at 37 °C; for Pearson's correlation coefficient of MitoTracker Green and Cy3 fluorescence: imaged at 20X; for Pearson's correlation coefficient of MitoTracker Green FM and Cy3 fluorescence: imaged at 63X. As to the method: (§5) SK-OV-3 and MCF7 were seeded at a density of 1 × 10^6 cells per well in glass-bottom culture dishes and grown at 37 °C in a 5% CO2 atmosphere in medium supplemented with 10% (v/v) FBS for 24 h. Cells were washed once with the RPMI-1640 medium supplemented with 10% (v/v) FBS before staining. Compounds 1, 5–10 were diluted into the RPMI-1640 medium supplemented with 10% (v/v) FBS to 10 μM and then added to the culture dishes, respectively. After 10-min incubation at 37 °C, cells were washed with RPMI-1640 medium supplemented with 10% (v/v) FBS. Cells were then treated with 50 nM MitoTracker Green FM and 10 μg/mL Hoechst33258 pre-formulated with RPMI-1640 medium supplemented with 10% (v/v) FBS and then incubated for another 10 min at 37 °C before analysis on ZEISS LSM 900 with Airyscan 2. The results were analyzed using Image J software (Figure 3 and Figures S4–S7 in Supplementary Materials).
(§6) Figure 3 Confocal microscopy images of SK-OV-3 and MCF7 cells treated with Cy3-containing conjugates. Cells were treated with 10 µM of the indicated conjugate for 10 min at 37 °C, washed, stained with 50 nM MitoTracker Green FM and 10 μg/mL Hoechst33258 for 10 min at 37 °C, washed, and imaged at 63X. Pearson’s correlation coefficients of MitoTracker Green FM and Cy3 fluorescence for compounds 1, 5, 6, 7, 8, 9, and 10 in SK-OV-3 and MCF cells are 0.75/0.64, 0.73/0.81, 0.91/0.61, 0.78/0.63, 0.85/0.69, 0.43/0.82, and 0.78/0.60, respectively. Excitation wavelengths for Hoechst33258, MitoTracker Green FM and Cy3 were set as 405, 488, and 561 nm, respectively. Scale bars denote 25 μm. Additional images, including the results of Hoechst33258 staining, are shown in Figure S4 (SK-OV-3 at 20X), Figure S5 (SK-OV-3 at 63X), Figure S6 (MCF7 at 20X) and Figure S7 (MCF7 at 63X), Supplementary Materials.

In series [7] the test system is mitochondria of MCF7 cells. Put plainly: Confocal microscopy, colocalisation with MitoTracker Green FM, MCF7 cells. To be noted: 10 µM conjugate, 10 min at 37 °C; for Pearson's correlation coefficient of MitoTracker Green and Cy3 fluorescence: imaged at 20X; for Pearson's correlation coefficient of MitoTracker Green FM and Cy3 fluorescence: imaged at 63X. As to the method: as §5, §6

Where a SMILES comes first, the peptide text is derived from it. Side-chain parts run from the residue outwards. [ ]: non-standard residue; d: D form. The star is where a group is joined. X1 = CN1/C(=C\C=C\C2=[N+](CCCCCC(=O)*)c3ccccc3C2(C)C)C(C)(C)c2ccccc21; Pteroyl = Nc1nc2ncc(CNc3ccc(C(=O)*)cc3)nc2c(=O)[nH]1; Cha = N[C@@H](CC1CCCCC1)C(=O)O; dCha = N[C@H](CC1CCCCC1)C(=O)O A value given as a limit tells only on which side of the number the result lay.

As for `CC(C)C[C@H](NC(=O)[C@H](CCCCN)NC(=O)[C@H](C)NC(=O)[C@H](CC(C)C)NC(=O)[C@H](CCCCN)NC(=O)[C@H](CCCCN)NC(=O)[C@H](C)NC(=O)[C@H](CC(C)C)NC(=O)[C@H](CCCCN)NC(=O)[C@H](C)NC(=O)[C@H](CC(C)C)NC(=O)[C@@H](N)CCCCN)C(=O)N[C@@H](C)C(=O)N[C@@H](CCCCN)C(N)=O` [Compound 2, reference compound], the EC50 in series [1] is > 400 µM; in series [2] it was > 400 µM; in series [3], > 400 µM; in series [4], > 300 µM; in series [5] it was > 400 µM. Moreover, the “Potency (cytotoxicity) in the tested cell lines, in words” value in series [4] is reported as “least potent amongst the tested compounds”.
In the case of `CC(C)C[C@@H](NC(=O)[C@H](N)CCCCN)C(=O)N[C@H](C)C(=O)N[C@H](CCCCN)C(=O)N[C@H](CC(C)C)C(=O)N[C@H](C)C(=O)N[C@H](CCCCN)C(=O)N[C@H](CCCCN)C(=O)N[C@H](CC(C)C)C(=O)N[C@H](C)C(=O)N[C@H](CCCCN)C(=O)N[C@H](CC(C)C)C(=O)N[C@H](C)C(=O)N[C@H](CCCCN)C(N)=O` [Compound 3, reference compound], the EC50 in series [1] is > 400 µM; in series [2], 331 µM; in series [3] it was > 400 µM; in series [4], > 300 µM; in series [5] it was > 400 µM. The “Potency (cytotoxicity) in the tested cell lines, in words” value in series [4] is recorded as “least potent amongst the tested compounds”.
With `CC(C)C[C@@H](NC(=O)[C@@H](CCCCN)NC(=O)[C@H](CCCCNC(=O)[C@H](CCC(=O)O)NC(=O)c1ccc(NCc2cnc3nc(N)nc(O)c3n2)cc1)NC(=O)CCCCC[N+]1=C(/C=C/C=C2\N(C)c3ccccc3C2(C)C)C(C)(C)c2ccccc21)C(=O)N[C@H](C)C(=O)N[C@H](CCCCN)C(=O)N[C@H](CC(C)C)C(=O)N[C@H](C)C(=O)N[C@H](CCCCN)C(=O)N[C@H](CCCCN)C(=O)N[C@H](CC(C)C)C(=O)N[C@H](C)C(=O)N[C@H](CCCCN)C(=O)N[C@H](CC(C)C)C(=O)N[C@H](C)C(=O)N[C@H](CCCCN)C(N)=O` [Compound 9], the results for the “Pearson's correlation coefficient of MitoTracker Green and Cy3 fluorescence” value in series [6] and in series [7] were 0.52 and 0.61, respectively. Besides, the “Pearson's correlation coefficient of MitoTracker Green FM and Cy3 fluorescence” value in series [6] was found to be 0.43; in series [7], 0.82. Further, the EC50 in series [1] turned out to be 8 µM; in series [2] it was 22.4 µM; in series [3], 6.9 µM; in series [5] it was 13.2 µM.
Consider `C[C@@H](NC(=O)[C@H](CC1CCCCC1)NC(=O)[C@@H](CCCCN)NC(=O)[C@@H](C)NC(=O)[C@@H](CC1CCCCC1)NC(=O)[C@@H](CCCCN)NC(=O)[C@H](CCCCNC(=O)[C@H](CCC(=O)O)NC(=O)c1ccc(NCc2cnc3nc(N)nc(O)c3n2)cc1)NC(=O)CCCCC[N+]1=C(/C=C/C=C2\N(C)c3ccccc3C2(C)C)C(C)(C)c2ccccc21)C(=O)N[C@H](CCCCN)C(=O)N[C@H](CCCCN)C(=O)N[C@@H](CC1CCCCC1)C(=O)N[C@H](C)C(=O)N[C@H](CCCCN)C(=O)N[C@H](CC1CCCCC1)C(=O)N[C@H](C)C(=O)N[C@H](CCCCN)C(N)=O` [Compound 10] (X1-K([Glu-Pteroyl])[dK][dCha][dA][dK][Cha][dA][dK][dK][Cha][dA][dK][dCha][dA][dK]-NH2), for which the “Pearson's correlation coefficient of MitoTracker Green and Cy3 fluorescence” value in series [6] stood at 0.79; in series [7], 0.68. The “Pearson's correlation coefficient of MitoTracker Green FM and Cy3 fluorescence” value was determined as 0.78 in series [6] and 0.60 in series [7]. Also, the EC50 in series [1] was 6 µM; in series [2], 3.4 µM; in series [3], 6.8 µM; in series [5], 6.9 µM.

For orientation: EC50 means the concentration needed to bring the measured effect to its halfway point.
